Values of other authors as cited in patent publication US10660869B2, “Lactate powder and method for the preparation thereof” (Purac Biochem B.V., priority 2012, dated 2020).

Conditions: 1000 mg of sample dissolved in 240 ml water

Structure (SMILES): CC(O)C(=O)[O-].CC(O)C(=O)[O-].O.O.O.O.O.[Ca+2] (stereo not shown) [PURACAL® PP/FCC, calcium lactate pentahydrate]
- typical dissolution time: 25 s
